In ChEMBL document CHEMBL1649134, “Occurrence of efflux mechanism and cephalosporinase variant in a population of Enterobacter aerogenes and Klebsiella pneumoniae isolates producing extended-spectrum beta-lactamases” (2009):
≈ marks a conversion by molar mass, not a printed value.

Columns and labels:
Format in all cases: functional
[1] = test system: Klebsiella aerogenes; assay: Antimicrobial activity against multidrug resistant Enterobacter aerogenes isolate 5 by broth dilution method
[2] = test system: Klebsiella aerogenes; assay: Antimicrobial activity against multidrug resistant Enterobacter aerogenes isolate 11 by broth dilution method
[3] = test system: Klebsiella aerogenes; assay: Antimicrobial activity against multidrug resistant Enterobacter aerogenes isolate 8 by broth dilution method in presence of 26.3 mg/L efflux pump inhibitor phenylalanine-arginine-beta-naphthylamide
[4] = test system: Klebsiella pneumoniae; assay: Antimicrobial activity against multidrug resistant Klebsiella pneumoniae isolate 7 by broth dilution method
[5] = test system: Klebsiella aerogenes; assay: Antimicrobial activity against multidrug resistant Enterobacter aerogenes isolate 7 by broth dilution method
[6] = test system: Klebsiella pneumoniae; assay: Antimicrobial activity against multidrug resistant Klebsiella pneumoniae isolate 5 by broth dilution method
[7] = test system: Klebsiella aerogenes; assay: Antimicrobial activity against multidrug resistant Enterobacter aerogenes isolate 5 by broth dilution method in presence of 26.3 mg/L efflux pump inhibitor phenylalanine-arginine-beta-naphthylamide
[8] = test system: Klebsiella aerogenes; assay: Antimicrobial activity against multidrug resistant Enterobacter aerogenes isolate 27 by broth dilution method
[9] = test system: Klebsiella pneumoniae; assay: Antimicrobial activity against multidrug resistant Klebsiella pneumoniae isolate 1 by broth dilution method
[10] = test system: Klebsiella aerogenes; assay: Antimicrobial activity against multidrug resistant Enterobacter aerogenes isolate 13 by broth dilution method
[11] = test system: Klebsiella aerogenes; assay: Antimicrobial activity against multidrug resistant Enterobacter aerogenes isolate 21 by broth dilution method in presence of 26.3 mg/L efflux pump inhibitor phenylalanine-arginine-beta-naphthylamide
[12] = test system: Klebsiella pneumoniae; assay: Antimicrobial activity against multidrug resistant Klebsiella pneumoniae isolate 2 by broth dilution method in presence of 26.3 mg/L efflux pump inhibitor phenylalanine-arginine-beta-naphthylamide
[13] = test system: Klebsiella aerogenes; assay: Antimicrobial activity against multidrug resistant Enterobacter aerogenes isolate 15 by broth dilution method in presence of 26.3 mg/L efflux pump inhibitor phenylalanine-arginine-beta-naphthylamide
[14] = test system: Klebsiella pneumoniae; assay: Antimicrobial activity against multidrug resistant Klebsiella pneumoniae ATCC 11296 by broth dilution method in presence of 26.3 mg/L efflux pump inhibitor phenylalanine-arginine-beta-naphthylamide
[15] = test system: Klebsiella pneumoniae; assay: Antimicrobial activity against multidrug resistant Klebsiella pneumoniae isolate 5 by broth dilution method in presence of 26.3 mg/L efflux pump inhibitor phenylalanine-arginine-beta-naphthylamide
[16] = test system: Klebsiella pneumoniae; assay: Antimicrobial activity against multidrug resistant Klebsiella pneumoniae isolate 6 by broth dilution method in presence of 26.3 mg/L efflux pump inhibitor phenylalanine-arginine-beta-naphthylamide
[17] = test system: Klebsiella pneumoniae; assay: Antimicrobial activity against multidrug resistant Klebsiella pneumoniae isolate 13 by broth dilution method in presence of 26.3 mg/L efflux pump inhibitor phenylalanine-arginine-beta-naphthylamide
[18] = test system: Klebsiella pneumoniae; assay: Antimicrobial activity against multidrug resistant Klebsiella pneumoniae isolate 8 by broth dilution method in presence of 26.3 mg/L efflux pump inhibitor phenylalanine-arginine-beta-naphthylamide
[19] = test system: Klebsiella aerogenes; assay: Antimicrobial activity against multidrug resistant Enterobacter aerogenes isolate 9 by broth dilution method
[20] = test system: Klebsiella aerogenes; assay: Antimicrobial activity against multidrug resistant Enterobacter aerogenes isolate 6 by broth dilution method in presence of 26.3 mg/L efflux pump inhibitor phenylalanine-arginine-beta-naphthylamide
[21] = test system: Klebsiella pneumoniae; assay: Antimicrobial activity against multidrug resistant Klebsiella pneumoniae isolate 13 by broth dilution method
[22] = test system: Klebsiella aerogenes; assay: Antimicrobial activity against multidrug resistant Enterobacter aerogenes isolate 25 by broth dilution method
[23] = test system: Klebsiella aerogenes; assay: Antimicrobial activity against multidrug resistant Enterobacter aerogenes isolate 20 by broth dilution method in presence of 26.3 mg/L efflux pump inhibitor phenylalanine-arginine-beta-naphthylamide
[24] = test system: Klebsiella aerogenes; assay: Antimicrobial activity against multidrug resistant Enterobacter aerogenes isolate 18 by broth dilution method
[25] = test system: Klebsiella aerogenes; assay: Antimicrobial activity against multidrug resistant Enterobacter aerogenes isolate 10 by broth dilution method in presence of 26.3 mg/L efflux pump inhibitor phenylalanine-arginine-beta-naphthylamide
[26] = test system: Klebsiella aerogenes; assay: Antimicrobial activity against multidrug resistant Enterobacter aerogenes isolate 21 by broth dilution method
[27] = test system: Klebsiella aerogenes; assay: Antimicrobial activity against multidrug resistant Enterobacter aerogenes isolate 12 by broth dilution method
[28] = test system: Klebsiella pneumoniae; assay: Antimicrobial activity against multidrug resistant Klebsiella pneumoniae isolate 9 by broth dilution method
[29] = test system: Klebsiella aerogenes; assay: Antimicrobial activity against multidrug resistant Enterobacter aerogenes isolate 8 by broth dilution method
[30] = test system: Klebsiella aerogenes; assay: Antimicrobial activity against multidrug resistant Enterobacter aerogenes isolate 3 by broth dilution method
[31] = test system: Klebsiella aerogenes; assay: Antimicrobial activity against multidrug resistant Enterobacter aerogenes isolate 19 by broth dilution method
[32] = test system: Klebsiella aerogenes; assay: Antimicrobial activity against multidrug resistant Enterobacter aerogenes isolate 1 by broth dilution method
[33] = test system: Klebsiella aerogenes; assay: Antimicrobial activity against multidrug resistant Enterobacter aerogenes isolate 17 by broth dilution method
[34] = test system: Klebsiella pneumoniae; assay: Antimicrobial activity against multidrug resistant Klebsiella pneumoniae isolate 4 by broth dilution method in presence of 26.3 mg/L efflux pump inhibitor phenylalanine-arginine-beta-naphthylamide
[35] = test system: Klebsiella aerogenes; assay: Antimicrobial activity against multidrug resistant Enterobacter aerogenes isolate 4 by broth dilution method
[36] = test system: Klebsiella pneumoniae; assay: Antimicrobial activity against multidrug resistant Klebsiella pneumoniae isolate 10 by broth dilution method
[37] = test system: Klebsiella aerogenes; assay: Antimicrobial activity against multidrug resistant Enterobacter aerogenes isolate 13 by broth dilution method in presence of 26.3 mg/L efflux pump inhibitor phenylalanine-arginine-beta-naphthylamide
[38] = test system: Klebsiella aerogenes; assay: Antimicrobial activity against multidrug resistant Enterobacter aerogenes isolate 19 by broth dilution method in presence of 26.3 mg/L efflux pump inhibitor phenylalanine-arginine-beta-naphthylamide
[39] = test system: Klebsiella pneumoniae; assay: Antimicrobial activity against multidrug resistant Klebsiella pneumoniae isolate 1 by broth dilution method in presence of 26.3 mg/L efflux pump inhibitor phenylalanine-arginine-beta-naphthylamide
[40] = test system: Klebsiella aerogenes; assay: Antimicrobial activity against multidrug resistant Enterobacter aerogenes isolate 9 by broth dilution method in presence of 26.3 mg/L efflux pump inhibitor phenylalanine-arginine-beta-naphthylamide
[41] = test system: Klebsiella pneumoniae; assay: Antimicrobial activity against multidrug resistant Klebsiella pneumoniae isolate 7 by broth dilution method in presence of 26.3 mg/L efflux pump inhibitor phenylalanine-arginine-beta-naphthylamide

C[C@@H]1CN(c2c(F)c(N)c3c(=O)c(C(=O)O)cn(C4CC4)c3c2F)C[C@H](C)N1 [SPARFLOXACIN]
MIC [1]: 512 µg/mL (≈ 1300 µM)
MIC [2]: 128 µg/mL (≈ 326 µM)
MIC [3]: 4 µg/mL
MIC [4]: 0.25 µg/mL (≈ 0.637 µM)
MIC [5]: 128 µg/mL (≈ 326 µM)
MIC [6]: 0.125 µg/mL (≈ 0.319 µM)
MIC [7]: 16 µg/mL
MIC [8]: 256 µg/mL (≈ 652 µM)
MIC [9]: 0.25 µg/mL (≈ 0.637 µM)
MIC [10]: 256 µg/mL (≈ 652 µM)
MIC [11]: 32 µg/mL
MIC [12]: ≤ 0.06 µg/mL
MIC [13]: 8 µg/mL
MIC [14]: ≤ 0.06 µg/mL
MIC [15]: ≤ 0.06 µg/mL
MIC [16]: ≤ 0.06 µg/mL
MIC [17]: 0.5 µg/mL
MIC [18]: ≤ 0.06 µg/mL
MIC [19]: 128 µg/mL (≈ 326 µM)
MIC [20]: ≤ 0.06 µg/mL
MIC [21]: 2.1 µg/mL (≈ 5.35 µM)
MIC [22]: 128 µg/mL (≈ 326 µM)
MIC [23]: 16 µg/mL
MIC [24]: 128 µg/mL (≈ 326 µM)
MIC [25]: 8 µg/mL
MIC [26]: 512 µg/mL (≈ 1300 µM)
MIC [27]: 128 µg/mL (≈ 326 µM)
MIC [28]: ≤ 0.06 µg/mL
MIC [29]: 64 µg/mL (≈ 163 µM)
MIC [30]: 128 µg/mL (≈ 326 µM)
MIC [31]: 128 µg/mL (≈ 326 µM)
MIC [32]: 256 µg/mL (≈ 652 µM)
MIC [33]: 256 µg/mL (≈ 652 µM)
MIC [34]: 2 µg/mL
MIC [35]: 128 µg/mL (≈ 326 µM)
MIC [36]: 8 µg/mL (≈ 20.4 µM)
MIC [37]: 8 µg/mL
MIC [38]: 16 µg/mL
MIC [39]: 0.25 µg/mL
MIC [40]: 8 µg/mL
MIC [41]: ≤ 0.06 µg/mL

CN(C)[C@@H]1C(O)=C(C(N)=O)C(=O)[C@@]2(O)C(O)=C3C(=O)c4c(O)cccc4[C@@](C)(O)[C@H]3C[C@@H]12 [TETRACYCLINE]
MIC [1]: 128 µg/mL (≈ 288 µM)
MIC [2]: 64 µg/mL (≈ 144 µM)
MIC [3]: 2 µg/mL
MIC [4]: 2 µg/mL (≈ 4.5 µM)
MIC [5]: 128 µg/mL (≈ 288 µM)
MIC [6]: 2 µg/mL (≈ 4.5 µM)
MIC [7]: 32 µg/mL
MIC [8]: 128 µg/mL (≈ 288 µM)
MIC [9]: 8 µg/mL (≈ 18 µM)
MIC [10]: 64 µg/mL (≈ 144 µM)
MIC [11]: 8 µg/mL
MIC [12]: 2 µg/mL
MIC [13]: 8 µg/mL
MIC [14]: 1 µg/mL
MIC [15]: 128 µg/mL
MIC [16]: 256 µg/mL
MIC [17]: 128 µg/mL
MIC [18]: 128 µg/mL
MIC [19]: 64 µg/mL (≈ 144 µM)
MIC [20]: 8 µg/mL
MIC [21]: 4 µg/mL (≈ 9 µM)
MIC [22]: 64 µg/mL (≈ 144 µM)
MIC [23]: 4 µg/mL
MIC [24]: 4 µg/mL (≈ 9 µM)
MIC [25]: 8 µg/mL
MIC [26]: 128 µg/mL (≈ 288 µM)
MIC [27]: 128 µg/mL (≈ 288 µM)
MIC [28]: 8 µg/mL (≈ 18 µM)
MIC [29]: 64 µg/mL (≈ 144 µM)
MIC [30]: 128 µg/mL (≈ 288 µM)
MIC [31]: 64 µg/mL (≈ 144 µM)
MIC [32]: 128 µg/mL (≈ 288 µM)
MIC [33]: 64 µg/mL (≈ 144 µM)
MIC [34]: 256 µg/mL
MIC [35]: 128 µg/mL (≈ 288 µM)
MIC [36]: 2 µg/mL (≈ 4.5 µM)
MIC [37]: 8 µg/mL
MIC [38]: 8 µg/mL
MIC [39]: 128 µg/mL
MIC [40]: 4 µg/mL
MIC [41]: 128 µg/mL
